Assay: physical adhesion test simulating introduction and deployment of paclitaxel-coated stents
Format: physicochemical
Conditions: passed through water-filled guiding catheter, balloon-expanded, measured by spectrometry
Description: More particularly, the adhesion of paclitaxel to two types of stainless steel, grit abraded stents was compared to its adhesion to stents of those types whose surfaces had instead been plasma treated prior to the direct deposition of paclitaxel thereon (control stents). The coated stents of both types, that is, medical devices 10 of the present invention and control stents, were then subjected to a physical adhesion test which simulated the rate at which paclitaxel would be delivered during introduction and deployment of the stents in clinical use. The adhesion test involved passing each stent through a water-filled guiding catheter of appropriate diameter and inflating the balloon catheter to expand each stent to its intended diameter. The stents are already mounted before coating. The amount of paclitaxel remaining on each stent was then measured by spectrometry and compared to the amount of paclitaxel initially posited on each stent. Stents having surfaces 16 roughened or textured by abrasion with different abrasive grits 24 retained 84.1±10.2% of the paclitaxel originally applied, while stents having plasma treated surfaces retained only 44.3±8.7% of the paclitaxel originally applied (p<0.0001).

Structure (SMILES): CC(=O)O[C@H]1C(=O)[C@@]2(C)[C@H]([C@H](OC(=O)c3ccccc3)[C@]3(O)C[C@H](OC(=O)[C@H](O)[C@@H](NC(=O)c4ccccc4)c4ccccc4)C(C)=C1C3(C)C)[C@]1(OC(C)=O)CO[C@@H]1C[C@@H]2O [paclitaxel]
- paclitaxel originally applied retained on stent after adhesion test (stainless steel control stents with plasma treated surfaces, p<0.0001 vs abraded): 44.3±8.7%
- paclitaxel originally applied retained on stent after adhesion test (stainless steel stents, surfaces roughened or textured by abrasion with different abrasive grits): 84.1±10.2%

Source: patent US9814865B2, “Coated medical device” (Cook Medical Technologies LLC, priority 2000, dated 2017)
